Patent US12559529B2, “NPY2 receptor agonists” (Boehringer Ingelheim International GmbH, priority 2019, dated 2026)
*1 amine or outer side, *2 acyl side, *3 side chain or, on linkers, in order; H or OH if unused. Where a SMILES comes first, the peptide text is derived from it. Side-chain parts run from the residue outwards. The star is where a group is joined. C18 diacid = O=C(O)CCCCCCCCCCCCCCCCC(=O)*; γGlu = O=C(O)[C@H](CCC(=O)[*:2])N[*:1]; Isovaleryl = CC(C)CC(=O)*; AEEA = NCCOCCOCC(=O)O

Key:
[1] = biological target: T1, Human Neuropeptide Y2 Receptor (Homo sapiens, UniProt P49146); assay: Radioligand binding competition assay (RLB); conditions: Table 3; human 125I-PYY (1-36) 0.02 nM, Y2 receptor membranes; read-out: Ki
T1 construct: purchased CHEMICON HTS066M
T1 sequence (P49146 1-381): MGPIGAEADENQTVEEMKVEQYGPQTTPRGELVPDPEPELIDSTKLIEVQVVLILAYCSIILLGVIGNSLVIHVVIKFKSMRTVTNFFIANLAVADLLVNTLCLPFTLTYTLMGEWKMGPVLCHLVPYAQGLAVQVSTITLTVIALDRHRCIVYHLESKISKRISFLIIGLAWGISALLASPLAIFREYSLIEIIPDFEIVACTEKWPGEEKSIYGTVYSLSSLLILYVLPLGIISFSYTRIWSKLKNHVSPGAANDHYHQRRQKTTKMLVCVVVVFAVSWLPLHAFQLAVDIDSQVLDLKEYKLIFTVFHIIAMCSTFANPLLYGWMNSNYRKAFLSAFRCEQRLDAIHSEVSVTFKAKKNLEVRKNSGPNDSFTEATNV
Summary of the method: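 IC50 values come from nonlinear regression of sigmoidal dose-response curves of filter-bound radioactivity. Peptides competed with radioligand at human Y2 receptor membranes (0.5 μg protein/well) for 2 h at room temperature in pH 7.4 HEPES buffer containing Mg2+, Ca2+ and 0.2% ovalbumin.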

normal NMRI mice = assay: Effect on acute food intake in normal NMRI mice; assay type: in vivo; conditions: male NMRI mice, 10 nmol/kg subcutaneously once
Summary of the method: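 A single 10 nmol/kg s.c. peptide dose was given 1 h before lights-off to male NMRI mice fasted from 6 h before the night phase (n=7-8). Intake was recorded continuously by microchip-identified HM-2 feeding channels. Values are normalized to vehicle controls (50 mM phosphate buffer pH7 with 5% Mannitol).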

Row | Ki [1] | Structure (SMILES) | Acute Food Intake 24 h [% vehicle] (normal NMRI mice)
1 | 0.75 nM | CC(C)CC(=O)N[C@@H](C)C(=O)N1CCC[C@H]1C(=O)N[C@@H](CCC(=O)O)C(=O)N[C@@H](CCCCNC(=O)COCCOCCNC(=O)COCCOCCNC(=O)CC[C@H](NC(=O)CCCCCCCCCCCCCCCCC(=O)O)C(=O)O)C(=O)N1CCC[C@H]1C(=O)N[C@@H](CCC(=O)O)C(=O)N[C@@H](CCC(=O)O)C(=O)N[C@@H](CC(=O)O)C(=O)N[C@@H](C)C(=O)N[C@@H](CO)C(=O)N1CCC[C@H]1C(=O)N[C@@H](CCC(=O)O)C(=O)N[C@@H](C)C(=O)N[C@@H](CC(C)C)C(=O)N[C@@H](CCC(N)=O)C(=O)N[C@@H](CCCNC(=N)N)C(=O)N[C@@H](Cc1ccc(O)cc1)C(=O)N[C@@H](Cc1ccc(O)cc1)C(=O)N[C@H](C(=O)N[C@@H](CCC(=O)O)C(=O)N[C@@H](CC(C)C)C(=O)N[C@@H](CCCNC(=N)N)C(=O)N[C@@H](Cc1c[nH]cn1)C(=O)N[C@@H](Cc1ccc(O)cc1)C(=O)N[C@@H](Cc1ccc(O)cc1)C(=O)N[C@@H](CC(N)=O)C(=O)N[C@@H](Cc1c[nH]c2ccccc12)C(=O)N[C@@H](CC(C)C)C(=O)N[C@H](C(=O)N[C@@H](CCCNC(=N)N)C(=O)N[C@@H](CCC(N)=O)C(=O)N[C@@H](CCCNC(=N)N)C(=O)N[C@@H](Cc1ccc(O)cc1)C(N)=O)[C@@H](C)O)C(C)C [Compound 195, N{alpha-4}-(3-methylbutanoyl)-N{epsilon-7}-[2-(2-{2-[2-(2-{2-[(4S)-4-carboxy-4-(17-carboxyheptadecanamido)butanamido]ethoxy}ethoxy)acetamido]ethoxy}ethoxy)acetamido]-[4A,7K,9E,16A,18Q,22V,23E,28Y,30W,31L]hPYY (4-36)] | 50 % vehicle
2 | 0.6 nM | CC(C)CC(=O)N[C@@H](C)C(=O)N1CCC[C@H]1C(=O)N[C@@H](CCC(=O)O)C(=O)N[C@@H](CCCCNC(=O)COCCOCCNC(=O)COCCOCCNC(=O)CC[C@H](NC(=O)CCCCCCCCCCCCCCCCC(=O)O)C(=O)O)C(=O)N1CCC[C@H]1C(=O)N[C@@H](CCC(=O)O)C(=O)N[C@@H](CCC(=O)O)C(=O)N[C@@H](CC(=O)O)C(=O)N[C@@H](C)C(=O)N[C@@H](C)C(=O)N1CCC[C@H]1C(=O)N[C@@H](CCC(=O)O)C(=O)N[C@@H](CCC(=O)O)C(=O)N[C@@H](CC(C)C)C(=O)N[C@@H](CCC(N)=O)C(=O)N[C@@H](CCCCN)C(=O)N[C@@H](Cc1ccc(O)cc1)C(=O)N[C@@H](Cc1ccc(O)cc1)C(=O)N[C@H](C(=O)N[C@@H](CO)C(=O)N[C@@H](CC(C)C)C(=O)N[C@@H](CCCNC(=N)N)C(=O)N[C@@H](Cc1c[nH]cn1)C(=O)N[C@@H](Cc1ccc(O)cc1)C(=O)N[C@@H](Cc1ccc(O)cc1)C(=O)N[C@@H](CC(N)=O)C(=O)N[C@@H](Cc1c[nH]c2ccccc12)C(=O)N[C@@H](CC(C)C)C(=O)N[C@H](C(=O)N[C@@H](CCCNC(=N)N)C(=O)N[C@@H](CCC(N)=O)C(=O)N[C@@H](CCCNC(=N)N)C(=O)N[C@@H](Cc1ccc(O)cc1)C(N)=O)[C@@H](C)O)C(C)C [Compound 202, N{alpha-4}-(3-methylbutanoyl)-N{epsilon-7}-[2-(2-{2-[2-(2-{2-[(4S)-4-carboxy-4-(17-carboxyheptadecanamido)butanamido]ethoxy}ethoxy)acetamido]ethoxy}ethoxy)acetamido]-[4A,7K,9E,13A,18Q,19K,22V,28Y,30W,31L]hPYY (4-36)] | 48 % vehicle
3 | 1.9 nM | CC(C)CC(=O)N[C@@H](C)C(=O)N1CCC[C@H]1C(=O)N[C@@H](CCC(=O)O)C(=O)N[C@@H](CCCCNC(=O)COCCOCCNC(=O)COCCOCCNC(=O)CC[C@H](NC(=O)CCCCCCCCCCCCCCCCC(=O)O)C(=O)O)C(=O)N1CCC[C@H]1C(=O)N[C@@H](CCC(=O)O)C(=O)N[C@@H](CCC(=O)O)C(=O)N[C@@H](CCC(=O)O)C(=O)N[C@@H](C)C(=O)N[C@@H](CO)C(=O)N1CCC[C@H]1C(=O)N[C@@H](CCC(=O)O)C(=O)N[C@@H](CCC(=O)O)C(=O)N[C@@H](CC(C)C)C(=O)N[C@@H](CCC(N)=O)C(=O)N[C@@H](CCCCN)C(=O)N[C@@H](Cc1ccc(O)cc1)C(=O)N[C@@H](Cc1ccc(O)cc1)C(=O)N[C@H](C(=O)N[C@@H](CO)C(=O)N[C@@H](CC(C)C)C(=O)N[C@@H](CCCNC(=N)N)C(=O)N[C@@H](Cc1c[nH]cn1)C(=O)N[C@@H](Cc1ccc(O)cc1)C(=O)N[C@@H](Cc1ccc(O)cc1)C(=O)N[C@@H](CC(N)=O)C(=O)N[C@@H](Cc1c[nH]c2ccccc12)C(=O)N[C@@H](CC(C)C)C(=O)N[C@H](C(=O)N[C@@H](CCCNC(=N)N)C(=O)N[C@@H](CCC(N)=O)C(=O)N[C@@H](CCCNC(=N)N)C(=O)N[C@@H](Cc1ccc(O)cc1)C(N)=O)[C@@H](C)O)C(C)C [Compound 205, N{alpha-4}-(3-methylbutanoyl)-N{epsilon-7}-[2-(2-{2-[2-(2-{2-[(4S)-4-carboxy-4-(17-carboxyheptadecanamido)butanamido]ethoxy}ethoxy)acetamido]ethoxy}ethoxy)acetamido]-[4A,7K,9E,11E,18Q,19K,22V,28Y,30W,31L]hPYY (4-36)] (Isovaleryl-APEK([AEEA-AEEA-γGlu-C18 diacid])PEEEASPEELQKYYVSLRHYYNWLTRQRY-NH2) | 65 % vehicle
4 | 3.8 nM | CC(C)CC(=O)N[C@@H](C)C(=O)N1CCC[C@H]1C(=O)N[C@@H](CCC(=O)O)C(=O)N[C@@H](CCCCNC(=O)COCCOCCNC(=O)COCCOCCNC(=O)CC[C@H](NC(=O)CCCCCCCCCCCCCCCCC(=O)O)C(=O)O)C(=O)N1CCC[C@H]1C(=O)N[C@@H](CCC(=O)O)C(=O)N[C@@H](CCC(=O)O)C(=O)N[C@@H](CC(=O)O)C(=O)N[C@@H](C)C(=O)N[C@@H](CO)C(=O)N[C@@H](CCC(=O)O)C(=O)N[C@@H](CCC(=O)O)C(=O)N[C@@H](CCC(=O)O)C(=O)N[C@H](C(=O)N[C@@H](CCC(N)=O)C(=O)N[C@@H](CCCNC(=N)N)C(=O)N[C@@H](Cc1ccc(O)cc1)C(=O)N[C@@H](Cc1ccc(O)cc1)C(=O)N[C@H](C(=O)N[C@@H](CO)C(=O)N[C@@H](CC(C)C)C(=O)N[C@@H](CCCNC(=N)N)C(=O)N[C@@H](Cc1c[nH]cn1)C(=O)N[C@@H](Cc1ccc(O)cc1)C(=O)N[C@@H](Cc1ccc(O)cc1)C(=O)N[C@@H](CC(N)=O)C(=O)N[C@@H](Cc1c[nH]c2ccccc12)C(=O)N[C@@H](CC(C)C)C(=O)N[C@H](C(=O)N[C@@H](CCCNC(=N)N)C(=O)N[C@@H](CCC(N)=O)C(=O)N[C@@H](CCCNC(=N)N)C(=O)N[C@@H](Cc1ccc(O)cc1)C(N)=O)[C@@H](C)O)C(C)C)[C@@H](C)O [Compound 208, N{alpha-4}-(3-methylbutanoyl)-N{epsilon-7}-[2-(2-{2-[2-(2-{2-[(4S)-4-carboxy-4-(17-carboxyheptadecanamido)butanamido]ethoxy}ethoxy)acetamido]ethoxy}ethoxy)acetamido]-[4A,7K,9E,14E,17T,18Q,22V,28Y,30W,31L]hPYY (4-36)] | 61 % vehicle
